Tests used:
Type in all cases: in vivo
[1] = Pharmacodynamic (PK) test in SD rat, serum concentration by Human GDF15 ELISA; settings: 2 mg/kg subcutaneous
Description: For evaluation of pharmacodynamic characteristics when each polypeptide was subcutaneously administered to rats, polypeptide IgG4-GDF or IgG4-GDF(CRL) was subcutaneously administered in an amount of 2 mg/kg, respectively, to SD Rat (Koatech, male, 7 weeks, about 250g; n=3 each; test group), and at a fixed time, blood was collected about […] through a caudal vein. Blood collecting was progressed before administration of the fusion polypeptide, in 1, 2, 4, 8, 24, 48, 72, 96, 168, 240 and 336 hours after administration. As a control group for comparison of pharmacodynamic characteristics, GDF15 (R&D Systems) was subcutaneously administered in an amount of 2 mg/kg by the same method as above to prepare GDF15 administration group.
After administering to SD Rat as above, blood collected by time-point was centrifuged to obtain serum, and ELISA was performed using Human GDF15 Immunoassay (SGD150, R&D Systems), to measure the concentration in serum over time for each polypeptide.

[2] = system: DIO mouse model (C57BL/6J-DIO); assay: Weight change in DIO mice after HIgG1-GDF(CRL) / IgG1-GDF(CRL) administration; settings: for Body Weight, Mean: 2.86 nmol/kg s.c. Daily Inj. for 5 days
Description: (§1) The pharmacological effect of the fusion polypeptide produced and purified in Example 1 was tested in mice (C57BL/6J, 6 weeks, male, 100 mice; RaonBio).
(§2) All the control material and test materials were administered subcutaneously. The administration route of the control material and test materials was selected as a subcutaneous route depending on the clinical intended route of administration.
The dose of all the control material and test materials was 5 mL/kg, and the dose by individual was calculated on the basis of the recently measured weight, […] (1 mL). […] For comparison, the control group in which the control material GDF15 was prepared, and for the comparison group in which GDF15 was administered, they were administered once a day for 5 days, 5 times in total, and all administrations were progressed from 9 AM.
The weight of each mouse was measured at the day of the start of administration of the test materials (before administration), and then the weight was measured every day (measured by 9 days at maximum). The dose of the test materials was determined on the basis of the most recently measured weight.

[3] = system: DIO mouse model (C57BL/6J-DIO); assay: Feed intake in DIO mice after HIgG1-GDF(CRL) / IgG1-GDF(CRL) administration; settings: 2.86 nmol/kg s.c. Daily Inj. for 5 days
Description: as §1, §2
The dose of all the control material and test materials was 5 mL/kg, and the dose by individual was calculated on the basis of the recently measured weight, and they were administered subcutaneously once at the test start day using a disposable syringe (1 mL). […] For comparison, the control group in which the control material GDF15 was prepared, and for the comparison group in which GDF15 was administered, they were administered once a day for 5 days, 5 times in total, and all administrations were progressed from 9 AM.
(§3) In addition, after administering the test materials to mice, the feed intake was measured every day, and the amount of feeding was measured using an electronic scale by each breeding box, and then the residual amount was measured to calculate the feed intake a day. Individuals who severely ate the feed were excluded from the measurement.

[4] = system: DIO mouse model (C57BL/6J-DIO); assay: Weight change in DIO mice after IgG4-GDF / IgG4-GDF(CRL) administration; settings: for Body Weight, Mean: 3 nmol/kg s.c. Daily Inj.
Description: as §1
The test materials (IgG4-GDF ? GDF IgG4-GDF(CRL)) and control material
(§4) Semaglutide (Bachem) were subcutaneously administered. The dose of all the control material and test materials was 5 mL/kg, and the dose by individual was calculated on the basis of the recently measured weight, […] (1 mL). […] For a comparison group in which Semaglutide was administered, Semaglutide were administered every day once a day. All administrations were progressed from 9 AM.
The weight of each mouse was measured at the day of the start of administration of the test materials (before administration), and then the weight was measured every day (measured by 19 days at maximum). The dose of the test materials was determined on the basis of the most recently measured weight.

[5] = system: DIO mouse model (C57BL/6J-DIO); assay: Feed intake in DIO mice after IgG4-GDF / IgG4-GDF(CRL) administration; settings: 3 nmol/kg s.c. Daily Inj.
Description: as §1, §4, §3

## GDF15: control material GDF15 (R&D Systems), Growth/differentiation factor 15 not fused with Fc
[1]; [(AUCinf − AUClast)/AUCinf]*100
  AUCextp: 0.463%
[1]; serum
  AUClast: 4860 ng·h/mL
  Cmax (maximum blood concentration): 443 ng/mL
  Tmax (time to reach maximum blood concentration): 1 h
  half-life: 19 h
  t1/2 (elimination half-life): 19.0 h
[1]; serum, extrapolated to infinite time
  AUCinf: 4880 ng·h/mL
[2]; Day 0
  Body Weight, Mean: 100 % of initial
[2]; Day 1
  Body Weight, Mean: 99 % of initial
[2]; Day 2
  Body Weight, Mean: 98 % of initial
[2]; Day 3
  Body Weight, Mean: 97 % of initial
[2]; Day 4
  Body Weight, Mean: 96 % of initial
[2]; Day 5
  Body Weight, Mean: 95 % of initial
[2]; Day 6
  Body Weight, Mean: 95 % of initial
[2]; Day 7
  Body Weight, Mean: 95 % of initial
[2]; Day 8
  Body Weight, Mean: 96 % of initial
[2]; Day 9
  Body Weight, Mean: 97 % of initial
[2]; daily administration, stopping administration from Day 5
  weight loss effect (in words): weight loss effect disappeared from Day 6
[3]; Day 0
  Feed intake a day, Mean: 2.8
[3]; Day 1
  Feed intake a day, Mean: 2.4
[3]; Day 2
  Feed intake a day, Mean: 2.7
[3]; Day 3
  Feed intake a day, Mean: 2.4
[3]; Day 4
  Feed intake a day, Mean: 2.5
[3]; Day 5
  Feed intake a day, Mean: 2.6
[3]; Day 6
  Feed intake a day, Mean: 2.7
[3]; Day 7
  Feed intake a day, Mean: 3.0
[3]; Day 8
  Feed intake a day, Mean: 3.3
[3]; Day 9
  Feed intake a day, Mean: 3.5

## Semaglutide [reference compound]
[4]; Day 0
  Body Weight, Mean: 100 % of initial
[4]; Day 1
  Body Weight, Mean: 94 % of initial
[4]; Day 2
  Body Weight, Mean: 91 % of initial
[4]; Day 3
  Body Weight, Mean: 90 % of initial
[4]; Day 4
  Body Weight, Mean: 87 % of initial
[4]; Day 5
  Body Weight, Mean: 87 % of initial
[4]; Day 6
  Body Weight, Mean: 85 % of initial
[4]; Day 7
  Body Weight, Mean: 86 % of initial
[4]; Day 8
  Body Weight, Mean: 83 % of initial
[4]; Day 9
  Body Weight, Mean: 85 % of initial
[4]; Day 10
  Body Weight, Mean: 84 % of initial
[4]; Day 11
  Body Weight, Mean: 82 % of initial
[4]; Day 12
  Body Weight, Mean: 81 % of initial
[4]; Day 13
  Body Weight, Mean: 82 % of initial
[4]; Day 14
  Body Weight, Mean: 81 % of initial
[4]; Day 15
  Body Weight, Mean: 79 % of initial
[4]; Day 16
  Body Weight, Mean: 79 % of initial
[4]; Day 17
  Body Weight, Mean: 78 % of initial
[4]; Day 18
  Body Weight, Mean: 77 % of initial
[4]; Day 19
  Body Weight, Mean: 77 % of initial
[4]; daily administration
  weight loss (in words): weight loss was consistent
[5]; Day 0
  Feed intake a day, Mean: 3.7
[5]; Day 1
  Feed intake a day, Mean: 2.1
[5]; Day 2
  Feed intake a day, Mean: 3.3
[5]; Day 3
  Feed intake a day, Mean: 2.8
[5]; Day 4
  Feed intake a day, Mean: 2.3
[5]; Day 5
  Feed intake a day, Mean: 2.9
[5]; Day 6
  Feed intake a day, Mean: 2.7
[5]; Day 7
  Feed intake a day, Mean: 3.2
[5]; Day 8
  Feed intake a day, Mean: 2.4
[5]; Day 9
  Feed intake a day, Mean: 3.7
[5]; Day 10
  Feed intake a day, Mean: 2.7
[5]; Day 11
  Feed intake a day, Mean: 2.5
[5]; Day 12
  Feed intake a day, Mean: 2.4
[5]; Day 13
  Feed intake a day, Mean: 3.0
[5]; Day 14
  Feed intake a day, Mean: 2.5
[5]; Day 15
  Feed intake a day, Mean: 2.1
[5]; Day 16
  Feed intake a day, Mean: 2.5
[5]; Day 17
  Feed intake a day, Mean: 2.0
[5]; Day 18
  Feed intake a day, Mean: 2.2
[5]; Day 19
  Feed intake a day, Mean: 3.7

Reference: patent publication US20230053119A1, “FUSION POLYPEPTIDE COMPRISING Fc REGION OF IMMUNOGLOBULIN AND GDF15” (LG CHEM, LTD., priority 2019, published 2023)
